“Also recorded” adds a separate entry of the source.
What was measured:
[1] = biological target: T1, slc26a9 (Mus musculus, UniProt Q8BU91); assay: Selectivity: slc26a9 Cl-/I- exchange in HEK293 cells; type: cell-based, murine; conditions: 10 µM
T1 construct: host or cells: HEK293 cells
T1 sequence (Q8BU91 1-790): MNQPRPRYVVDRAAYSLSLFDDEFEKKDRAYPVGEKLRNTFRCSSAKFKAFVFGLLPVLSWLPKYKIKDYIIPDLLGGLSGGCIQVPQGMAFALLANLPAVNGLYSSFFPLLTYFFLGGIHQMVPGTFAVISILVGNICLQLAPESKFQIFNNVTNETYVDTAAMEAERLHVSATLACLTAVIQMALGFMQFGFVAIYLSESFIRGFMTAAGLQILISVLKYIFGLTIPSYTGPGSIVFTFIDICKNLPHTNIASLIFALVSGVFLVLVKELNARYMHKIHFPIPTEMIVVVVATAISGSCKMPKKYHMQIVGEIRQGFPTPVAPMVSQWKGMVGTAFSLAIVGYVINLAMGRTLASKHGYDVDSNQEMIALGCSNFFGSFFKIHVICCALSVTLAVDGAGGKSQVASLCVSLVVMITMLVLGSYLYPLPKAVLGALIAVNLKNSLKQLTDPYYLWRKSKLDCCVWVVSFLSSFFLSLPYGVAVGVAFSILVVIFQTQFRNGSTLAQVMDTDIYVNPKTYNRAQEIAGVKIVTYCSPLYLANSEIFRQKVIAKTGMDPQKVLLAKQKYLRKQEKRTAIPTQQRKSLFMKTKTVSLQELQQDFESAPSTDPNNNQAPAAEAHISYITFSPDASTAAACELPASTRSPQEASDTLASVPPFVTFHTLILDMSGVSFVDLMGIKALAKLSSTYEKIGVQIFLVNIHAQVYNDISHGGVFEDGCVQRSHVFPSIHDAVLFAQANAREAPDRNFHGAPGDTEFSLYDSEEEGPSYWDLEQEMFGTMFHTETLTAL
Text: To investigate Compound A1 selectivity, transport assays were done on a panel of SLC26-family homologs, and other relevant epithelial ion transporters and channels. […] In separate studies, to investigate possible action of Compound A1 on multiple ion transporters and channels in a human epithelium, human bronchial epithelial (HBE) cells were studied by short-circuit current, with successive additions of amiloride (to block the epithelial sodium channel ENaC), forskolin, CFTRinh-172 (to block CFTR), and ATP (to activate the Ca^2+-activated chloride channel, CaCC) (FIG. 5C).
HEK293 cells transfected with pIRES-YFP-slc26a9 were plated in 96-well black-walled, clear-bottom tissue culture plates (Corning Life Sciences, Tewksbury, MA) after coating with FNC Coating Mix (AthenaES, Baltimore, MD). […] Assays of slc26a9-mediated anion exchange were done by initially recording YFP fluorescence prior to addition of 100 µL of NaI-substituted PBS to test wells, with the initial rate of Cl^-/I^- exchange deduced from fluorescence intensity by single exponential regression. […] To assay SLC26A3 function, HEK293 cells transduced with lentiviral particles generated from the pLVX-IRES-mCherry-SLC26A3 transfer vector were transfected to express YFP for Cl^-/I^- exchange assays as described above; red fluorescence images were acquired to confirm SLC26A3 expression in cells. […]

[2] = biological target: T2, slc26a3 (Mus musculus, UniProt Q9WVC8); assay: slc26a3-mediated Cl-/SCN- exchange; type: cell-based, murine; conditions: read-out: IC50 for inhibition of slc26a3-mediated Cl-/SCN- exchange
T2 construct: host or cells: Fischer rat thyroid (FRT) cells expressing YFP, clonal line FRT-YFP-slc26a3
T2 sequence (Q9WVC8 1-757): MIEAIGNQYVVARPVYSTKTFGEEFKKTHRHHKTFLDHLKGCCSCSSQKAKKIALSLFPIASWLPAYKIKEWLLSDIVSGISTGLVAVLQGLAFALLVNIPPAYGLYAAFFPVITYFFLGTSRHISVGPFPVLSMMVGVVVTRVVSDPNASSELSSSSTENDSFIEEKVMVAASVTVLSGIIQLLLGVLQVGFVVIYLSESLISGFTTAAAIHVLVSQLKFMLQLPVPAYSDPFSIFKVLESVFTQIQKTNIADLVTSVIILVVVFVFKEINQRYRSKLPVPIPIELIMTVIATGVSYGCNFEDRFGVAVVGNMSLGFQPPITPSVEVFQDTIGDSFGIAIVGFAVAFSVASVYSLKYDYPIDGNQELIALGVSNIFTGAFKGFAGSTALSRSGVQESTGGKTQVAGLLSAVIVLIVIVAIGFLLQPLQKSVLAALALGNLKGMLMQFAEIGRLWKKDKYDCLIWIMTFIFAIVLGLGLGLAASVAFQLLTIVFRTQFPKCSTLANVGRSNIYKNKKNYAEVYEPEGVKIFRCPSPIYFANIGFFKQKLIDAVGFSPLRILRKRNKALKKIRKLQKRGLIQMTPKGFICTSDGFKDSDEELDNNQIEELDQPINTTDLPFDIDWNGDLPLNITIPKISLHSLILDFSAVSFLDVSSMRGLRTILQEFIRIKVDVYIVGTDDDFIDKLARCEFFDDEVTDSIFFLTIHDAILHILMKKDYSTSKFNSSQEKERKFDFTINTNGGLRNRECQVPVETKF
Procedure: Concentration-dependence measurements for inhibition of slc26a3-mediated exchange of Cl^- and HCO3^-, the physiologically relevant activity of slc26a3, was measured using slc26a3-expressing FRT cells labeled with BCECF as a cytoplasmic pH sensor. Labeled cells were initially incubated in a Cl^--containing HCO3^- buffered solution, and HCO3^- influx / Cl^- efflux with cytoplasmic alkalinization was produced by addition of a gluconate-containing HCO3^- buffered solution. […] Concentration-dependence measurements for inhibition of slc26a3-mediated Cl^-/SCN^- exchange gave an IC50 of ~0.3 µM (FIG. 4B).

`Cc1c(CC(=O)O)c(=O)oc2c(C)c(OCc3cccc(Br)c3)ccc12` [Compound A1] was tested, and the “effect on Cl-/I- exchange activity of slc26a9” value [1] was “did not alter; also recorded: differences not significant” and the IC50 [2] was ~300 nM.

Source: patent US20230339878A1, “SLC26A3 INHIBITORS AND USE THEREOF” (THE REGENTS OF THE UNIVERSITY OF CALIFORNIA, priority 2018, published 2023)
